These are literature values, as cited in patent US20050009744A1, “Treatment of congestive heart failure” (priority 2001, published 2005).

For the data set the following is noted: Lysko et al, J Cardiovasc Pharmacol 2000.

As for `COc1ccccc1OCCNCC(O)COc1cccc2[nH]c3ccccc3c12` (stereo not shown) [Carvedilol, carvedilol], the antioxidant activity entry is “far greater antioxidant activity than e.g. metoprolol”.
